Assay results from the NIST ThermoML archive (doi:10.1016/j.fluid.2017.12.010).

Test: xn = mol fraction of the nth substance listed
Conditions: Liquid, Vibrating tube method

CCCCCCCCCCCC [dodecane] + CCCCCCCCCC
Conditions | mass density [kg/m3]
342.94 K, 80000 kPa, x2 = 0.2297 | 765
342.94 K, 80000 kPa, x2 = 0.6433 | 758
342.94 K, 100000 kPa, x2 = 0.2297 | 774
342.94 K, 100000 kPa, x2 = 0.6433 | 768
342.95 K, 100 kPa, x2 = 0.7841 | 698
342.95 K, 1000 kPa, x2 = 0.7841 | 699
342.96 K, 5000 kPa, x2 = 0.7841 | 703
342.97 K, 10000 kPa, x2 = 0.7841 | 708
342.97 K, 20000 kPa, x2 = 0.7841 | 717
342.98 K, 30000 kPa, x2 = 0.7841 | 724
342.98 K, 40000 kPa, x2 = 0.7841 | 732
342.99 K, 60000 kPa, x2 = 0.7841 | 744
343 K, 80000 kPa, x2 = 0.7841 | 756
343 K, 99990 kPa, x2 = 0.7841 | 766
352.58 K, 100 kPa, x2 = 0 | 707
352.58 K, 1000 kPa, x2 = 0 | 708
352.58 K, 5000 kPa, x2 = 0 | 712
352.58 K, 10000 kPa, x2 = 0 | 716
352.58 K, 20000 kPa, x2 = 0 | 725
352.58 K, 30000 kPa, x2 = 0 | 733
352.58 K, 40000 kPa, x2 = 0 | 740
352.58 K, 50000 kPa, x2 = 0 | 747
352.58 K, 60000 kPa, x2 = 0 | 753
352.58 K, 70000 kPa, x2 = 0 | 759
352.58 K, 80000 kPa, x2 = 0 | 764
352.58 K, 90000 kPa, x2 = 0 | 769
352.58 K, 100000 kPa, x2 = 0 | 774
352.73 K, 100 kPa, x2 = 0.2297 | 702
352.74 K, 1000 kPa, x2 = 0.2297 | 703
352.74 K, 5000 kPa, x2 = 0.2297 | 707
352.75 K, 10000 kPa, x2 = 0.2297 | 712
352.75 K, 20000 kPa, x2 = 0.2297 | 721
352.75 K, 30000 kPa, x2 = 0.2297 | 729
352.75 K, 40000 kPa, x2 = 0.2297 | 736
352.76 K, 60000 kPa, x2 = 0.2297 | 749
352.76 K, 80000 kPa, x2 = 0.2297 | 760
352.76 K, 100000 kPa, x2 = 0.2297 | 770
352.78 K, 100 kPa, x2 = 0.6433 | 694
352.78 K, 1000 kPa, x2 = 0.6433 | 695
352.78 K, 5000 kPa, x2 = 0.6433 | 699
352.78 K, 10000 kPa, x2 = 0.6433 | 704
352.78 K, 20000 kPa, x2 = 0.6433 | 713
352.78 K, 30000 kPa, x2 = 0.6433 | 721
352.78 K, 40000 kPa, x2 = 0.6433 | 729
352.79 K, 5000 kPa, x2 = 0.4436 | 703
352.79 K, 60000 kPa, x2 = 0.6433 | 742
352.79 K, 79990 kPa, x2 = 0.6433 | 754
352.79 K, 100000 kPa, x2 = 0.6433 | 764
352.8 K, 1000 kPa, x2 = 0.4436 | 699
352.8 K, 10000 kPa, x2 = 0.4436 | 708
352.8 K, 20000 kPa, x2 = 0.4436 | 717
352.81 K, 100 kPa, x2 = 0.4436 | 698
352.81 K, 1000 kPa, x2 = 0.7841 | 692
352.81 K, 30000 kPa, x2 = 0.4436 | 725
352.81 K, 40000 kPa, x2 = 0.4436 | 733
352.81 K, 60000 kPa, x2 = 0.4436 | 746
352.81 K, 99990 kPa, x2 = 0.4436 | 767
352.82 K, 100 kPa, x2 = 0.7841 | 691
352.82 K, 80000 kPa, x2 = 0.4436 | 757
352.83 K, 5000 kPa, x2 = 0.7841 | 696
352.84 K, 10000 kPa, x2 = 0.7841 | 701
352.84 K, 20000 kPa, x2 = 0.7841 | 711
352.85 K, 30000 kPa, x2 = 0.7841 | 719
352.85 K, 40000 kPa, x2 = 0.7841 | 726
352.85 K, 60000 kPa, x2 = 0.7841 | 740
352.85 K, 80000 kPa, x2 = 0.7841 | 751
352.85 K, 100000 kPa, x2 = 0.7841 | 762
362.48 K, 5000 kPa, x2 = 0 | 704
362.48 K, 10000 kPa, x2 = 0 | 709
362.48 K, 20000 kPa, x2 = 0 | 718
362.48 K, 30000 kPa, x2 = 0 | 726
362.48 K, 50000 kPa, x2 = 0 | 741
362.48 K, 80000 kPa, x2 = 0 | 759
362.48 K, 90000 kPa, x2 = 0 | 764
362.49 K, 100 kPa, x2 = 0 | 699
362.49 K, 1000 kPa, x2 = 0 | 700
362.49 K, 40000 kPa, x2 = 0 | 734
362.49 K, 60000 kPa, x2 = 0 | 747
362.49 K, 70000 kPa, x2 = 0 | 753
362.49 K, 100000 kPa, x2 = 0 | 769
362.57 K, 100 kPa, x2 = 0.2297 | 695
362.57 K, 1000 kPa, x2 = 0.2297 | 696
362.58 K, 5000 kPa, x2 = 0.2297 | 700
362.58 K, 10000 kPa, x2 = 0.2297 | 705
362.58 K, 20000 kPa, x2 = 0.2297 | 714
362.58 K, 30000 kPa, x2 = 0.2297 | 722
362.59 K, 40000 kPa, x2 = 0.2297 | 730
362.59 K, 60000 kPa, x2 = 0.2297 | 743
362.59 K, 80000 kPa, x2 = 0.2297 | 755
362.59 K, 100000 kPa, x2 = 0.2297 | 765
362.61 K, 100 kPa, x2 = 0.4436 | 690
362.61 K, 1000 kPa, x2 = 0.4436 | 691
362.62 K, 100 kPa, x2 = 0.6433 | 686
362.62 K, 1000 kPa, x2 = 0.6433 | 687
362.62 K, 5000 kPa, x2 = 0.4436 | 696
362.62 K, 5000 kPa, x2 = 0.6433 | 691
362.62 K, 10000 kPa, x2 = 0.4436 | 701
362.62 K, 10000 kPa, x2 = 0.6433 | 697
362.62 K, 20000 kPa, x2 = 0.4436 | 710
362.62 K, 30000 kPa, x2 = 0.4436 | 719
362.62 K, 40000 kPa, x2 = 0.4436 | 726
362.62 K, 60000 kPa, x2 = 0.4436 | 740
362.62 K, 80000 kPa, x2 = 0.4436 | 752
362.63 K, 20000 kPa, x2 = 0.6433 | 706
362.63 K, 30000 kPa, x2 = 0.6433 | 715
362.63 K, 40000 kPa, x2 = 0.6433 | 722
362.63 K, 60000 kPa, x2 = 0.6433 | 736
362.63 K, 80000 kPa, x2 = 0.6433 | 748
362.63 K, 99990 kPa, x2 = 0.6433 | 758
362.63 K, 100000 kPa, x2 = 0.4436 | 762
362.64 K, 100 kPa, x2 = 0.7841 | 682
362.64 K, 1000 kPa, x2 = 0.7841 | 683
362.65 K, 5000 kPa, x2 = 0.7841 | 688
362.65 K, 10000 kPa, x2 = 0.7841 | 693
362.66 K, 20000 kPa, x2 = 0.7841 | 703
362.66 K, 30000 kPa, x2 = 0.7841 | 712
362.66 K, 40000 kPa, x2 = 0.7841 | 719
362.66 K, 60000 kPa, x2 = 0.7841 | 733
362.66 K, 80000 kPa, x2 = 0.7841 | 745
362.66 K, 100010 kPa, x2 = 0.7841 | 756
